{
  "source": "patent US20250186458A1",
  "about": "“METHODS FOR THE TREATMENT OF MILD COGNITIVE IMPAIRMENT” (BIOVIE INC., priority 2022, published 2025)",
  "key": {"[1]": {"test_system": "patients with cognitive impairment consistent with MCI or mild probable AD", "experiment": "Open-label three-month study, cognitive tests (QDRS, MMSE, MoCA, ADAS-Cog12, Global Rating of Change)", "type": "in vivo, human", "excerpt": "Twenty-three patients, approximately equal numbers of men women, age 50-89 years, with cognitive impairment consistent with MCI or mild probable AD, but without other readily apparent major systemic disease were identified and received informed consent under the supervision of a central institution review board (IRB). Patients were qualified (screened) for the study by the following criteria, QDRS score ranging from 1.5-12.5, with a converted Clinical Dementia Rating (CDR) score of 0.5 (mild cognitive impairment) to 1 (mild dementia).\nPrior to treatment (baseline) concomitant medications were stabilized and the patients were tested for cognitive function by the Quick Dementia Rating Scale (QDRS), Clinical Dementia Rating (CDR) score as estimated by the QDRS, a modified form of the Alzheimer's Disease Assessment Scale (ADAS-Cog12), the Mini-Mental State Examination (MMSE), and the Montreal Cognitive Assessment (MoCA) and by multi-modal brain MRIs to establish pre-treatment data for glutathione levels (as measured by magnetic resonance spectroscopy, MRS), dendritic density (as measured by diffusion tensor imaging, DTI-NODDI); arterial signal compared (as quantified by arterial spin labeling, ASL), functional connectivity of the nucleus basalis of Meynert (NBM) with both hippocampi as well as between both hippocampi as visualized by seed analysis of blood-oxygen level dependent (BOLD) imaging, and neurovascular coupling as visualized by BOLD compared to baseline. Baseline samples of the patients' blood and cerebral spinal fluid were collected for evaluation of AD and inflammation biomarkers.\nPatients were treated with 20 mg 17α-ethynylandrost-5-ene-3β,7β,17β-triol oral capsules twice daily (BID for three months. All patients received 17α-ethynylandrost-5-ene-3β,7β,17β-triol; there were no placebo controls. Safety was monitored at clinical visits at 2 weeks, 4 weeks, 8 weeks, and completion. Routine hematology and clinical chemistry tests were performed at these visits and adverse events were monitored.\nAt the end of the treatment schedule the baseline assessments for cognition, neuroimaging and biomarkers were repeated."}, "[2]": {"test_system": "patients with degenerative dementia", "experiment": "Exit interviews with patients who completed NE3107-TRP-001", "type": "in vivo, human", "method": "The exit interviews were conducted in the US with 11 adult patients/study partners who completed the Phase 2 trial of NE3107. Participants (patients and study partners) completed one 60-minute semi-structured interview via remote videoconference to facilitate face-to-face communication.\nEach interview was divided into four parts: 1) elicitation of experience with degenerative dementia, 2) changes due to treatment with NE3107 and meaningfulness of those changes, 3) experience with NE3107 during the trial, and, if applicable, 4) study partner perceptions of the patient's changes during the trial and their trial experience.\nInterviews took place via videoconference with a trained and experienced interviewers using a semi-structured interview guide. Participants were required to confirm that they signed the ICF for the exit interview, and provide permission to record the interview. The interviews lasted approximately 60 minutes. Open-ended questions were used to characterize the participant's experience with degenerative dementia. Three overarching topics were covered: 1) degenerative dementia signs and symptoms prior to the trial, 2) changes experienced during the trial, and 3) experience with the trial medication (NE3107). Interviewers noted spontaneously reported changes experienced during the trial and followed up with probes (as needed) to elicit the full range of changes experienced.\nIf both the patient and study partner participated, the patient was interviewed first with the study partner present. Following the patient interview, the study partner was interviewed without the patient present. Interviewers were instructed to direct the questions towards the patient and to remind the study partner that they would have an opportunity to add information or different perspectives at the end.\nThe coding and analysis of the interview transcripts followed principles in line with qualitative thematic (content) analysis (Braun et al. 2019), with additional features drawn from grounded theory (Bryant and Charmaz 2007; Strauss and Corbin 1998). This approach conforms to best practices in the field (Patrick et al. 2011). A saturation table was developed during the coding process and updated after each interview to ensure that the interviews provided sufficient quality and quantity of data to support the study goals. The focus of saturation was changes due to treatment.\nDuring the interviews, patients were asked open-ended questions about any changes they experienced as a result of being treated with NE3107. Patients reported 14 unique change-related concepts related that were categorized as follows: cognitive (2 concepts), psychological (4 concepts), behavioral (2 concepts), physical (5 concepts), and no change (1 concept) (Table 3)."}, "[3]": {"conditions": "overall population, three months"}, "[4]": {"conditions": "patients with a baseline MMSE score 20, three months"}},
  "data": [
    {"smiles": "C#C[C@]1(O)CC[C@H]2[C@@H]3[C@@H](O)C=C4C[C@@H](O)CC[C@]4(C)[C@H]3CC[C@@]21C", "note": "[17α-ethynylandrost-5-ene-3β,7β,17β-triol, 17-ethynyl-10R, 13S-dimethyl 2,3,4,7, 8R, 9S, 10, 11, 12, 13, 14S, 15, 16, 17-hexadecahydro-1H-cyclopenta[a]phenanthrene-3R, 7R, 17S-triol]", "values": [
      {"measurement": "QDRS, median decrease", "setting": "[1]; 20 mg oral BID, three months vs baseline", "result": 0.75, "unit": "points"},
      {"measurement": "GSR scores improved, by patients", "setting": "[1]; MCI patients, three months", "result": "15 of 17"},
      {"measurement": "GSR scores improved, by study partners", "setting": "[1]; MCI patients, three months", "result": "11 of 17"},
      {"measurement": "GSR scores improved, by the clinician", "setting": "[1]; MCI patients, three months", "result": "16 of 17"},
      {"measurement": "Median QDRS behavioral improved", "setting": "[1]; MCI patients, three months", "result": "one"},
      {"measurement": "Montreal Cognitive Assessment, improved", "setting": "[1]; MCI patients, three months", "result": "7 of 17"},
      {"measurement": "QDRS behavioral, improved", "setting": "[1]; MCI patients, three months", "result": "11 of 18"},
      {"measurement": "ADAS Cog 12, median score improved", "setting": "[1]; MCI population, three months", "result": 2.3, "unit": "points"},
      {"measurement": "ADAS Cog 12 score, improved", "setting": "[1]; MCI population, three months", "result": "14 of 17"},
      {"measurement": "MMSE score, improved", "setting": "[1]; MCI population, three months", "result": "8 of 17"},
      {"measurement": "QDRS, patients improved", "setting": "[1]; of patients evaluated, 20 mg oral BID, three months", "result": "14 of 21"},
      {"measurement": "ADAS Cog 12, median score improved", "setting": "[1]; [3]", "result": 0.67, "unit": "points"},
      {"measurement": "ADAS Cog 12 score, improved", "setting": "[1]; [3]", "result": "14 of 23"},
      {"measurement": "Global Rating of Change (GRS), clinician's score improved", "setting": "[1]; [3]", "result": "18 of 23"},
      {"measurement": "Global Rating of Change (GRS), patient's self-evaluation score improved", "setting": "[1]; [3]", "result": "18 of 23"},
      {"measurement": "Global Rating of Change (GRS), score from study partners improved", "setting": "[1]; [3]", "result": "13 of 22"},
      {"measurement": "MMSE score, improved", "setting": "[1]; [3]", "result": "9 of 23"},
      {"measurement": "Montreal Cognitive Assessment, patients improved", "setting": "[1]; [3]", "result": "9 of 23"},
      {"measurement": "improved (QDRS)", "setting": "[1]; [4]", "result": "12/17"},
      {"measurement": "median score improvement (QDRS)", "setting": "[1]; [4]", "result": "one"},
      {"measurement": "Median QDRS cognition subscores improved (declined)", "setting": "[1]; three months vs baseline", "result": 0.5, "unit": "points"},
      {"measurement": "QDRS cognition subscores, patients improved", "setting": "[1]; three months vs baseline", "result": "16/23"},
      {"measurement": "average number of positive changes per patient who improved", "setting": "[2]; SD=1.86, range 1-7", "result": 4.7},
      {"measurement": "Change due to treatment reported by patients: No Change", "setting": "[2]; exit interviews, N = 11", "result": 2, "unit": "n"},
      {"measurement": "patients who experienced no change", "setting": "[2]; exit interviews, N = 11, figure in brackets after the count", "result": 15.4},
      {"measurement": "Change due to treatment reported by patients: No Change", "setting": "[2]; exit interviews, N = 11, listed as NE3107", "result": "two"},
      {"measurement": "Cognitive Change from Interview (Memory or Clarity)", "setting": "[2]; subject N-02-22", "result": "Improvement"},
      {"measurement": "Cognitive Change from Interview (Memory or Clarity)", "setting": "[2]; subject N-03-22", "result": "Improvement"},
      {"measurement": "Cognitive Change from Interview (Memory or Clarity)", "setting": "[2]; subject N-07-22", "result": "Improvement"},
      {"measurement": "Cognitive Change from Interview (Memory or Clarity)", "setting": "[2]; subject N-10-22", "result": "No Change"},
      {"measurement": "Cognitive Change from Interview (Memory or Clarity)", "setting": "[2]; subject N-14-22", "result": "No Change"},
      {"measurement": "Cognitive Change from Interview (Memory or Clarity)", "setting": "[2]; subject N-16-22", "result": "Improvement"},
      {"measurement": "Cognitive Change from Interview (Memory or Clarity)", "setting": "[2]; subject N-17-22", "result": "Improvement"},
      {"measurement": "Cognitive Change from Interview (Memory or Clarity)", "setting": "[2]; subject N-18-22", "result": "Improvement"},
      {"measurement": "Cognitive Change from Interview (Memory or Clarity)", "setting": "[2]; subject N-20-22", "result": "Improvement"},
      {"measurement": "Cognitive Change from Interview (Memory or Clarity)", "setting": "[2]; subject N-22-22", "result": "Improvement"},
      {"measurement": "Cognitive Change from Interview (Memory or Clarity)", "setting": "[2]; subject N-23-22", "result": "Improvement"}
    ]}
  ]
}
